Results taken from patent US20260265246A1 (ICAHN SCHOOL OF MEDICINE AT MOUNT SINAI, priority 2021, published 2026).
Like-named read-outs stand apart in the source and are kept apart here.

Assays:
[1] = molecular target: T1, 5HT2A receptor (Homo sapiens, UniProt P28223); experiment: biochemical; assay type: binding; set-up: expressed in transfected cells; crude membranes
[2] = molecular target: T1, 5HT2A receptor; experiment: cell-based; set-up: expressed in transfected cells; host or cells: HEK293T cells, transient co-transfection; details: BRET1 beta-arrestin2 recruitment, HEK293T cells
[3] = molecular target: T1, 5HT2A receptor; experiment: cell-based; set-up: expressed in transfected cells; host or cells: HEK293T cells, transient co-transfection; details: for Emax: HEK-293T
[4] = 5HT2A Ki (nM), secondary binding assay, Cheng-Prusoff
[5] = 5HTA Gq EC50 (nM), BRET2 Gαq dissociation, HEK293T
[6] = BRET2 Gαq dissociation, HEK293T, normalized to 5-HT, read-out: 5HTA Gq Emax (%)
[7] = read-out: 5HTA Gq Emax (%), BRET2 Gαq dissociation, HEK293T, normalized to 5-HT
[8] = BRET2 Gαq dissociation, HEK293T, read-out: 5HTA Gq EC50

T1 sequence (P28223 whole entry): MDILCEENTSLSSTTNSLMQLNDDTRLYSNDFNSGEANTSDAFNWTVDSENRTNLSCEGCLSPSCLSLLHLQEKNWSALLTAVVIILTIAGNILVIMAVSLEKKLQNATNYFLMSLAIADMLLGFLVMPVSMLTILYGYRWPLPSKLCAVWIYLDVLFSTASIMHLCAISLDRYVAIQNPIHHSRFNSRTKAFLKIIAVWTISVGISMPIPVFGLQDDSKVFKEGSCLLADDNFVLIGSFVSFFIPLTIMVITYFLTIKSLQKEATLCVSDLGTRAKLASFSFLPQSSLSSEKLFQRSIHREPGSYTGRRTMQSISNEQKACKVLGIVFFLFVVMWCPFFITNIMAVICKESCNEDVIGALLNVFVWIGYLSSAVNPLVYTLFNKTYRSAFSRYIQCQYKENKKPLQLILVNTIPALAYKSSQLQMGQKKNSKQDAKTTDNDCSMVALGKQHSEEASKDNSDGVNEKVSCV

SMILES	Ki [1, 4] [nM]	EC50 [3, 5] [nM]	Emax [3, 6] [%]	other results
CN1CCC=C(c2c[nH]c3nccc(-c4ccccc4)c23)C1 [Example 16, 3-(1-methyl-1,2,5,6-tetrahydropyridin-3-yl)-4-phenyl-1H-pyrrolo[2,3-b]pyridine]	–	–	–	Ki ([1]; 5HT2A Ki (nM), secondary radioligand binding, Ki from IC50 by Cheng-Prusoff): 164 nM; EC50 ([2]; 5HT2A β-Arr EC50 (nM)): 2140 nM; Emax ([2]; HEK-293T, normalized to 5-HT, read-out: 5HT2A β-Arr Emax (%)): 49.6%
Cc1ccc2[nH]cc(C3=CCCN(C)C3)c2n1 [Example 140, 5-methyl-3-(1-methyl-1,2,5,6-tetrahydropyridin-3-yl)-1H-pyrrolo[3,2-b]pyridine]	1130	247	62.6	–
C1=C(c2c[nH]c3ccncc23)CNCC1 [Example 141, 3-(1,2,5,6-tetrahydropyridin-3-yl)-1H-pyrrolo[3,2-c]pyridine]	739	631	91.3	–
CCCN1CCC=C(c2c[nH]c3ccncc23)C1 [Example 144, 3-(1-propyl-1,2,5,6-tetrahydropyridin-3-yl)-1H-pyrrolo[3,2-c]pyridine]	8250	1180	67.2	–
Clc1cccc2c(C3=CCCN(CC4CC4)C3)n[nH]c12 [Example 151, 7-chloro-3-(1-(cyclopropylmethyl)-1,2,5,6-tetrahydropyridin-3-yl)-1H-indazole]	198	61.1	–	Emax [3, 7]: 38.8%
CC(F)(F)CN1CCC=C(c2n[nH]c3c(Cl)cccc23)C1 [Example 163, 7-chloro-3-(1-(2,2-difluoropropyl)-1,2,5,6-tetrahydropyridin-3-yl)-1H-indazole]	> 10000	604	82.4	–
CCC(C)N1CCC=C(c2n[nH]c3c(Cl)cccc23)C1 (stereo not drawn) [Example 167, 3-(1-(sec-butyl)-1,2,5,6-tetrahydropyridin-3-yl)-7-chloro-1H-indazole]	525	173	25.7	–
CCCN(CCC)C1CCC=C(c2n[nH]c3c(Cl)cccc23)C1 (stereo not drawn) [Example 172, 3-(7-chloro-1H-indazol-3-yl)-N,N-dipropylcyclohex-3-en-1-amine]	> 10000	4020	66.4	–
CCCN1CCC=C(c2n[nH]c3c(Cl)cc(F)cc23)C1 [Example 173, 7-chloro-5-fluoro-3-(1-propyl-1,2,5,6-tetrahydropyridin-3-yl)-1H-indazole]	839	–	57.3	EC50 [3, 8]: 84.6 nM
Clc1cccc2c(C34CNCC3C4)n[nH]c12 (stereo not drawn) [Example 180, 3-(3-azabicyclo[3.1.0]hexan-1-yl)-7-chloro-1H-indazole]	227	174	–	Emax [3, 7]: 109%
Clc1cccc2c(C34CNCCC3C4)n[nH]c12 (stereo not drawn) [Example 181, 3-(3-azabicyclo[4.1.0]heptan-1-yl)-7-chloro-1H-indazole]	842	120	–	Emax [3, 7]: 61.3%
CCCN1CCC2CC2(c2n[nH]c3c(Cl)cccc23)C1 (stereo not drawn) [Example 182, 7-chloro-3-(3-propyl-3-azabicyclo[4.1.0]heptan-1-yl)-1H-indazole]	2470	786	78.9	–
CN1CC2CC2(c2n[nH]c3c(Cl)cccc23)C1 (stereo not drawn) [Example 183, 7-chloro-3-(3-methyl-3-azabicyclo[3.1.0]hexan-1-yl)-1H-indazole]	595	251	–	Emax [3, 7]: 69.7%
FC1(F)C2CCNCC21c1n[nH]c2c(Cl)cccc12 (stereo not drawn) [Example 188, 7-chloro-3-(7,7-difluoro-3-azabicyclo[4.1.0]heptan-1-yl)-1H-indazole]	2100	1460	–	Emax [3, 7]: 83.7%
Fc1cc(Cl)c2[nH]nc(C34CNCCC3C4(F)F)c2c1 (stereo not drawn) [Example 191, 7-chloro-3-(7,7-difluoro-3-azabicyclo[4.1.0]heptan-1-yl)-5-fluoro-1H-indazole]	3040	1620	83	–
Fc1cccc2c(C34CNCCC3C4)n[nH]c12 (stereo not drawn) [Example 194, 3-(3-azabicyclo[4.1.0]heptan-1-yl)-7-fluoro-1H-indazole]	2480	795	64.4	–
Fc1cc(Cl)c2[nH]nc(C34CNCCC3C4)c2c1 (stereo not drawn) [Example 196, 3-(3-azabicyclo[4.1.0]heptan-1-yl)-7-chloro-5-fluoro-1H-indazole]	910	220	67	–
CN1CCC2CC2(c2n[nH]c3c(Cl)cc(F)cc23)C1 (stereo not drawn) [Example 198, 7-chloro-5-fluoro-3-(3-methyl-3-azabicyclo[4.1.0]heptan-1-yl)-1H-indazole]	1450	1160	45.1	–
Fc1cc(Cl)c2[nH]nc(C34CNCC3C4(F)F)c2c1 (stereo not drawn) [Example 203, 7-chloro-3-(6,6-difluoro-3-azabicyclo[3.1.0]hexan-1-yl)-5-fluoro-1H-indazole]	1080	700	39.5	–
CN1CCCC=C(c2n[nH]c3c(Cl)cccc23)C1 [Example 211, 7-chloro-3-(1-methyl-2,5,6,7-tetrahydro-1H-azepin-3-yl)-1H-indazole]	1180	732	59.9	–

SMILES	Ki [1, 4] [nM]	EC50 [3, 5] [nM]	Emax [3, 6] [%]	other results
Clc1cccc2c(C3=CCCCNC3)c[nH]c12 [Example 212, 7-chloro-3-(2,5,6,7-tetrahydro-1H-azepin-3-yl)-1H-indole]	6240	655	–	Emax [3, 7]: 72.5%
Clc1cccc2c(C3=CC4CCC3NC4)n[nH]c12 (stereo not drawn) [Example 223, 6-(7-chloro-1H-indazol-3-yl)-2-azabicyclo[2.2.2]oct-5-ene]	1920	717	–	Emax [3, 7]: 89.7%
Clc1cccc2c(C3CC4CCC(C3)N4)n[nH]c12 (stereo not drawn) [Example 225, 3-(8-azabicyclo[3.2.1]octan-3-yl)-7-chloro-1H-indazole]	2110	500	105	–
Cc1cccc2c(C34CC3CN(C)C4)n[nH]c12 (stereo not drawn) [Example 227, 7-methyl-3-(3-methyl-3-azabicyclo[3.1.0]hexan-1-yl)-1H-indazole]	1450	684	32.5	–
Clc1cccc2c(C34CCNCC3C4)n[nH]c12 (stereo not drawn) [Example 228, 3-(3-azabicyclo[4.1.0]heptan-6-yl)-7-chloro-1H-indazole]	5240	1070	76.4	–
Clc1cccc2c(C3=CCNCC3)n[nH]c12 [Example 241, 7-chloro-3-(1,2,3,6-tetrahydropyridin-4-yl)-1H-indazole]	376	–	63.4	EC50 [3, 8]: 65 nM
CCCN1CC=C(c2c[nH]c3c(Cl)cccc23)CC1 [Example 243, 7-chloro-3-(1-propyl-1,2,3,6-tetrahydropyridin-4-yl)-1H-indole]	27.2	104	–	Emax [3, 7]: 41.9%
CCCc1cccc2c(C3=CCCN(C)C3)c[nH]c12 [Example 244, 3-(1-methyl-1,2,5,6-tetrahydropyridin-3-yl)-7-propyl-1H-indole]	1550	397	–	Emax [3, 7]: 77.2%
CN1CCOC(c2c[nH]c3c(Cl)cccc23)C1 (stereo not drawn) [Example 246, 2-(7-chloro-1H-indol-3-yl)-4-methylmorpholine]	2140	620	69.6	–
Fc1cc(Cl)c2[nH]cc(C3CNCCO3)c2c1 (stereo not drawn) [Example 249, 2-(7-chloro-5-fluoro-1H-indol-3-yl)morpholine]	1020	118	72.2	–
Clc1cccc2c(C3=CN4CCC3CC4)c[nH]c12 [Example 250, 3-(7-chloro-1H-indol-3-yl)-1-azabicyclo[2.2.2]oct-2-ene]	1630	1290	73.1	–
Cc1cccc2c(C3CNC3)c[nH]c12 [Example 258, 3-(azetidin-3-yl)-7-methyl-1H-indole]	674	444	–	Emax [3, 7]: 82.1%
Fc1cccc2c(C3CNC3)c[nH]c12 [Example 259, 3-(azetidin-3-yl)-7-fluoro-1H-indole]	168	944	–	Emax [3, 7]: 81.6%
CN1CC(c2c[nH]c3c(F)cccc23)C1 [Example 260, 7-fluoro-3-(1-methylazetidin-3-yl)-1H-indole]	357	422	63.1	–
CC(C)c1cccc2c(C3CNC3)c[nH]c12 [Example 262, 3-(azetidin-3-yl)-7-isopropyl-1H-indole]	1910	316	114	–
Cc1cc(Cl)cc2c(C3CNC3)c[nH]c12 [Example 263, 3-(azetidin-3-yl)-5-chloro-7-methyl-1H-indole]	244	127	63.7	–
Fc1cc(F)c2[nH]cc(C3CNC3)c2c1 [Example 264, 3-(azetidin-3-yl)-5,7-difluoro-1H-indole]	–	165	44.7	Ki ([1]; secondary binding assay, Cheng-Prusoff, read-out: 5HT2A Ki): 98.8 nM
c1cnc2[nH]cc(C34CNCCC3C4)c2c1 (stereo not drawn) [Example 268, 3-(3-azabicyclo[4.1.0]heptan-1-yl)-1H-pyrrolo[2,3-b]pyridine]	5940	740	98	–
Cc1cccc2c(C34CNCCC3C4)c[nH]c12 (stereo not drawn) [Example 271, 3-(3-azabicyclo[4.1.0]heptan-1-yl)-7-methyl-1H-indole]	3150	327	80.1	–
